Calls of active or inactive are those of the source. The rule behind the calls is not given here.
System: rodent carcinogenicity bioassays, tumor incidence
Test: CCRIS carcinogenicity studies
Procedure, shortened: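 NCI-built, expert-reviewed records of carcinogenicity and related test outcomes (mutagenicity, tumor promotion/inhibition) compiled from published and report sources, historical span 1985-2011, not updated.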

In the case of `ClC(Cl)=C(Cl)C(Cl)=C(Cl)Cl`, the carcinogen call (Species: RAT, Strain/Sex: SPRAGUE-DAWLEY/MALE,FEMALE, Route: ORAL, Dose: 0.2, 2.0, 20 MG/KG/DAY IN DIET, Dose: 0.2, 2.0, 20 MG/KG/DAY IN DIET, Tumor Site: Type of Lesion: KIDNEY: RENAL TUBULAR ADENOMA, ADENOCARCINOMA) is reported as “active; positive”.

With `[Cd]` the carcinogen call (Species: HUMAN, Route: INHALATION, ORAL, DERMAL, Tumor Site: Type of Lesion: PROSTATE GLAND) was “active; positive”, the carcinogen call (Species: RAT, Strain/Sex: F344/MALE,FEMALE, Route: INTRAMUSCULAR, Dose: 5 MG GIVEN IN 2 INJECTIONS AT MONTHLY INTERVALS (STUDY DURATION: 12 MO), Tumor Site: Type of Lesion: INJECTION SITE: FIBROSARCOMA) was “active; positive” and the carcinogen call (Species: RAT, Strain/Sex: LONG-EVANS/FEMALE, Route: INTRAMUSCULAR, Dose: 14, 28 MG, Tumor Site: Type of Lesion: INJECTION SITE: RHABDOMYOSARCOMA, FIBROSARCOMA) was “active; positive”.

For `CNNC`, the carcinogen call (Species: HAMSTER, Route: INTRAMUSCULAR, Tumor Site: Type of Lesion: STOMACH, LIVER, INTESTINES, Tumor Site: Type of Lesion: STOMACH, LIVER, INTESTINES) was “active; positive”, the carcinogen call (Species: HAMSTER, Route: ORAL, Tumor Site: Type of Lesion: BLOOD VESSELS, INTESTINES, LIVER, Tumor Site: Type of Lesion: BLOOD VESSELS, INTESTINES, LIVER) was “active; positive” and the carcinogen call (Species: MONKEY, Strain/Sex: CEBUS APELLA/MALE, Route: SUBCUTANEOUS, Dose: 0, 25 MG/KG BW 1/WK FOR 16 WK (STUDY DURATION: 20 MO)) was “inactive; negative”. The carcinogen call (Species: MOUSE, Route: ORAL, Tumor Site: Type of Lesion: LUNG, BLOOD VESSELS) was “active; positive”, the carcinogen call (Species: MOUSE, Route: SUBCUTANEOUS, Tumor Site: Type of Lesion: COLON, INTESTINES) was “active; positive” and the carcinogen call (Species: RAT, Route: ORAL, Tumor Site: Type of Lesion: INTESTINES, LIVER) was “active; positive”. For the same molecule, the carcinogen call (Species: RAT, Route: SUBCUTANEOUS, Tumor Site: Type of Lesion: COLON, INTESTINES, LIVER, Tumor Site: Type of Lesion: COLON, INTESTINES, LIVER) was “active; positive”, the carcinogen call (Species: RAT, Strain/Sex: WISTAR/FEMALE, Route: SUBCUTANEOUS, Dose: 0, 200 MG/KG BW ONCE (STUDY DURATION: 1 YR), Tumor Site: Type of Lesion: KIDNEY: TUMOR) was “active; positive” and the carcinogen call (Species: RAT, Strain/Sex: WISTAR/MALE, Route: SUBCUTANEOUS, Dose: 30 MG/KG IN NACL-EDTA 1/WK FOR 10 OR 15 WK, Tumor Site: Type of Lesion: INTESTINES: CARCINOMA (INVASIVE, INCLUDING MUCIN AND NONMUCIN PRODUCING), CARCINOMA (NONINVASIVE)) was “active; positive”.

For `Clc1ccc(-c2ccc(Cl)c(Cl)c2Cl)c(Cl)c1Cl`, the carcinogen call (Species: RAT, Strain/Sex: SHERMAN/FEMALE, Route: ORAL, Dose: 100 MG/KG IN DIET, Tumor Site: Type of Lesion: LIVER: NEOPLASTIC NODULE, HEPATOCELLULAR CARCINOMA) was “active; positive”, the carcinogen call (Species: RAT, Strain/Sex: SPRAGUE-DAWLEY/FEMALE, Route: ORAL, Dose: 0, 25, 50, 100 PPM IN DIET FOR THE DURATION OF STUDY (STUDY DURATION: 24 MO), Dose: 0, 25, 50, 100 PPM IN DIET FOR THE DURATION OF STUDY (STUDY DURATION: 24 MO), Tumor Site: Type of Lesion: LIVER: TUMOR) was “active; positive” and the carcinogen call (Species: RAT, Strain/Sex: SPRAGUE-DAWLEY/FEMALE, Route: ORAL, Dose: 0, 100 PPM IN DIET FOR 16 MO AND 50 PPM FOR AN ADDITIONAL 8 MO FOLLOWED BY CONTROL DIET FOR 5 MO (STUDY DURATION: 29 MO), Tumor Site: Type of Lesion: LIVER: TRABECULAR CARCINOMA, ADENOCARCINOMA) was “active; positive”. The carcinogen call (Species: RAT, Strain/Sex: SPRAGUE-DAWLEY/MALE, Route: ORAL, Dose: 0, 25, 50, 100 PPM IN DIET FOR THE DURATION OF STUDY (STUDY DURATION: 24 MO), Dose: 0, 25, 50, 100 PPM IN DIET FOR THE DURATION OF STUDY (STUDY DURATION: 24 MO), Tumor Site: Type of Lesion: THYROID GLAND: ADENOMA OR CARCINOMA, LIVER: TUMOR) was “active; positive”, the carcinogen call (Species: RAT, Strain/Sex: SPRAGUE-DAWLEY/MALE, Route: ORAL, Dose: 0, 100 PPM IN DIET FOR 16 MO AND 50 PPM FOR AN ADDITIONAL 8 MO FOLLOWED BY CONTROL DIET FOR 5 MO (STUDY DURATION: 29 MO)) was “inactive; negative” and the carcinogen call (Species: RAT, Strain/Sex: WISTAR/MALE, Route: ORAL, Dose: 0, 50, 100 PPM IN A 10% PROTEIN DIET FOR 4 MO (STUDY DURATION: 4 MO), Dose: 0, 50, 100 PPM IN A 10% PROTEIN DIET FOR 4 MO (STUDY DURATION: 4 MO), Tumor Site: Type of Lesion: THYMUS: NEOPLASM, SPLEEN: NEOPLASM) was “active; positive”.

In the case of `Cc1cc(Cl)ccc1N`, the carcinogen call (Species: MOUSE, Strain/Sex: B6C3F1/FEMALE, Route: ORAL, Dose: 0, 1250, 5000 PPM IN DIET, Dose: 0, 1250, 5000 PPM IN DIET, Tumor Site: Type of Lesion: BLOOD VESSELS: HEMANGIOMA OR HEMANGIOSARCOMA) is reported as “active; positive”, the carcinogen call (Species: MOUSE, Strain/Sex: B6C3F1/MALE, Route: ORAL, Dose: 0, 3750, 15000 PPM IN DIET, Dose: 0, 3750, 15000 PPM IN DIET, Tumor Site: Type of Lesion: BLOOD VESSELS: HEMANGIOMA OR HEMANGIOSARCOMA) is reported as “active; positive” and the carcinogen call (Species: RAT, Strain/Sex: F344/FEMALE, Route: ORAL, Dose: 0, 1250, 5000 PPM IN DIET, Dose: 0, 1250, 5000 PPM IN DIET) is reported as “inactive; negative”. The carcinogen call (Species: RAT, Strain/Sex: F344/MALE, Route: ORAL, Dose: 0, 1250, 5000 PPM IN DIET, Dose: 0, 1250, 5000 PPM IN DIET) was “inactive; negative”.

In the case of `ClC(Cl)C(Cl)(Cl)Cl`, the carcinogen call (Species: MOUSE, Strain/Sex: B6C3F1/FEMALE, Route: GAVAGE, Dose: 250, 500 MG/KG IN CORN OIL FOR 41-103 WK (STUDY DURATION: 41-103 WK), Tumor Site: Type of Lesion: LIVER: HEPATOCELLULAR ADENOMA, CARCINOMA) is reported as “active; positive”, the carcinogen call (Species: MOUSE, Strain/Sex: B6C3F1/MALE, Route: GAVAGE, Dose: 250, 500 MG/KG IN CORN OIL FOR 41-103 WK (STUDY DURATION: 41-103 WK), Tumor Site: Type of Lesion: LIVER: HEPATOCELLULAR CARCINOMA) is reported as “active; positive” and the carcinogen call (Species: RAT, Strain/Sex: F344/FEMALE, Route: GAVAGE, Dose: 0, 75, 150 MG/KG IN CORN OIL FOR 103 WK (STUDY DURATION: 103 WK), Dose: 0, 75, 150 MG/KG IN CORN OIL FOR 103 WK (STUDY DURATION: 103 WK)) is reported as “inactive; negative”. For the same molecule, the carcinogen call (Species: RAT, Strain/Sex: F344/MALE, Route: GAVAGE, Dose: 0, 75, 150 MG/KG IN CORN OIL FOR 103 WK (STUDY DURATION: 103 WK), Dose: 0, 75, 150 MG/KG IN CORN OIL FOR 103 WK (STUDY DURATION: 103 WK), Tumor Site: Type of Lesion: KIDNEY: TUBULAR CELL ADENOMA) was “equivocal”.

`NC(=O)N(N)c1ccccc1` was tested, and the carcinogen call (Species: MOUSE, Route: ORAL, Tumor Site: Type of Lesion: LIVER, LUNG) was “active; positive”.

With `CCC(C)[C@H]1O[C@]2(CC[C@@H]1C)CC1C[C@@H](C/C=C(\C)[C@@H](O[C@H]3C[C@H](OC)[C@@H](OC4C[C@H](OC)[C@@H](O)[C@H](C)O4)[C@H](C)O3)[C@@H](C)/C=C/C=C3\CO[C@@H]4[C@H](O)C(C)=C[C@@H](C(=O)O1)[C@]34O)O2` (stereo partly specified) (tested in a mixture with another compound) the carcinogen call (Species: RAT, Strain/Sex: WISTAR/MALE, Route: ORAL, Dose: 0, 2 PPM IN DIET FOR DURATION OF STUDY (STUDY DURATION: 1 YR)) was “inactive; negative”.

`CNCCC(Oc1ccc(C(F)(F)F)cc1)c1ccccc1` (stereo unspecified) was tested, and the carcinogen call (Species: MOUSE, Strain/Sex: B6C3F1/FEMALE, Route: ORAL, Dose: 0, 0.001, 0.004, 0.01% IN DIET FOR 24 MO (STUDY DURATION: 24 MO), Dose: 0, 0.001, 0.004, 0.01% IN DIET FOR 24 MO (STUDY DURATION: 24 MO)) was “inactive; negative”, the carcinogen call (Species: MOUSE, Strain/Sex: B6C3F1/MALE, Route: ORAL, Dose: 0, 0.001, 0.004, 0.01% IN DIET FOR 24 MO (STUDY DURATION: 24 MO), Dose: 0, 0.001, 0.004, 0.01% IN DIET FOR 24 MO (STUDY DURATION: 24 MO)) was “inactive; negative” and the carcinogen call (Species: RAT, Strain/Sex: F344/FEMALE, Route: ORAL, Dose: 0, 0.001, 0.0045, 0.02% IN DIET FOR 24 MO (STUDY DURATION: 24 MO), Dose: 0, 0.001, 0.0045, 0.02% IN DIET FOR 24 MO (STUDY DURATION: 24 MO)) was “inactive; negative”. The carcinogen call (Species: RAT, Strain/Sex: F344/MALE, Route: ORAL, Dose: 0, 0.001, 0.0045, 0.02% IN DIET FOR 24 MO (STUDY DURATION: 24 MO), Dose: 0, 0.001, 0.0045, 0.02% IN DIET FOR 24 MO (STUDY DURATION: 24 MO)) was “inactive; negative”.

With `CCCN(CCC)N=O` the carcinogen call (Species: HAMSTER, Route: SUBCUTANEOUS, Tumor Site: Type of Lesion: RESPIRATORY TRACT, LUNG) was “active; positive”, the carcinogen call (Species: RAT, Route: ORAL, Tumor Site: Type of Lesion: LIVER) was “active; positive” and the carcinogen call (Species: RAT, Route: SUBCUTANEOUS, Tumor Site: Type of Lesion: NASAL CAVITY, LIVER) was “active; positive”.
